Assay [1] concerns the target T1, recombinant human 17β-HSD2 (Homo sapiens, UniProt P37059).
T1 construct: made in house; host or cells: Sd9 (Sf9) insect cells, baculovirus (Bac to Bac Expression System)
T1 sequence (P37059 1-387): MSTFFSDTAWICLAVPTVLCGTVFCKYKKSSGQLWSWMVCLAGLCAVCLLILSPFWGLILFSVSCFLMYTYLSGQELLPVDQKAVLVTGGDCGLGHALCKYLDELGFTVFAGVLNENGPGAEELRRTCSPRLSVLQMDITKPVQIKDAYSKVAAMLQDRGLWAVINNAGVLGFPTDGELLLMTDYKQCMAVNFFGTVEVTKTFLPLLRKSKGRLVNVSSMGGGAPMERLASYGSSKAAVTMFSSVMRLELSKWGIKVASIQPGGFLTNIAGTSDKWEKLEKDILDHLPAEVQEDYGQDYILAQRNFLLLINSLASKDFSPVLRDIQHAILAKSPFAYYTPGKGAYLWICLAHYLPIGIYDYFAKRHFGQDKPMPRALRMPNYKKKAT
As to the kind of experiment: Inhibition of recombinant human 17β-HSD2. The class given is biochemical. To be noted: for inhibition at 1 µM: read-out: 17β-HSD2 Inhibition % at 1 μM. The gist of the method: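 Membrane extract of baculovirus-expressed enzyme in Sf9 cells (4 μg/ml) incubated in 20 mM KH2PO4 pH 8.5 with 50 nM estradiol (³H-tracer) and 1 mM NADH, 30 min at RT, 1% DMSO, inhibitor at 1 μM or 0.1 μM. TCA-stopped; estradiol-to-estrone conversion by radio-HPLC; % inhibition = 100 − % conversion.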

The target in assay [2] is T2, recombinant human 17β-HSD1 (Homo sapiens, UniProt P14061).
T2 construct: made in house; host or cells: Sd9 (Sf9) insect cells, baculovirus (Bac to Bac Expression System)
T2 sequence (P14061 1-328): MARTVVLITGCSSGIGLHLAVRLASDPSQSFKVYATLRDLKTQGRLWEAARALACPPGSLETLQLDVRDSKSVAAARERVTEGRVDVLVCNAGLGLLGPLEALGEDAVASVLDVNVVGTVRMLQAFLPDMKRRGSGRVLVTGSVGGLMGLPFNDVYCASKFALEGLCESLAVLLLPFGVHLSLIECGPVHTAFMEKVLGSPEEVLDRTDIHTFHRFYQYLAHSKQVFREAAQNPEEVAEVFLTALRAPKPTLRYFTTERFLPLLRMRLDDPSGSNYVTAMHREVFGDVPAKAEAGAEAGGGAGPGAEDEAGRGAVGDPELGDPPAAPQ
Put plainly: Inhibition of recombinant human 17β-HSD1. The assay is classed as biochemical. To be noted: for inhibition at 1 µM: read-out: 17β-HDS1 Inhibition % at 1 μM. The gist of the method:
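Microsomal enzyme from baculovirus-infected insect cells (1 μg/ml) incubated 30 min at RT in 20 mM KH2PO4 pH 7.4 with 30 nM ³H-estrone and 1 mM NADPH, inhibitor at 1 μM or 0.1 μM, 1% DMSO. TCA-stopped; estrone/estradiol separated by radio-HPLC; % inhibition = 100 − % conversion.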

Where [3] appears, read: inhibitor at 1 μM, 50 nM estradiol, 1 mM NADH, 30 min at RT.
Where [4] appears, read: inhibitor at 1 μM, 30 nM estrone, 1 mM NADPH, 30 min at RT.

Like-named read-outs stand apart in the source and are kept apart here.

Usually inhibition stands for the relative decrease from the control value, in per cent. Regarding `Cc1cnc(NC(=O)CC[C@@H]2CC(=O)[C@@]3(C)CCC4c5ccc(OS(N)(=O)=O)cc5CCC4C23)s1` (stereo partly drawn) [Compound 4, Sulphamic acid (13S,15R)-13-methyl-15-[2-(5-methylthiazol-2-ylcarbamoyl)-ethyl]-17-oxo-7,8,9,11,12,13,14,15,16,17-decahydro-6H-cyclopenta[a]phenanthren-3-yl ester], the values for the inhibition at 1 µM in assay [1] (setting [3]) and in assay [2] (setting [4]) were 3% and 82%, respectively.

As to `Cc1cnc(NC(=O)CC[C@@H]2CC(=O)[C@@]3(C)CCC4c5ccc(O)c(Cl)c5CCC4C23)s1` (stereo partly drawn) [Compound 63, 3-((13S,15R)-4-chloro-3-hydroxy-13-methyl-17-oxo-7,8,9,11,12,13,14,15,16,17-decahydro-6H-cyclopenta[a]phenanthren-15-yl)-N-(5-methylthiazol-2-yl)propanamide], the values for the inhibition at 1 µM in assay [1] (setting [3]) and in assay [2] (setting [4]) were 21% and 99%, respectively.

As for `COc1ccc2c(c1)CCC1C2CC[C@]2(C)C(=O)C(O)[C@@H](CCC(=O)Nc3ncc(C)s3)C12` (stereo partly drawn) [Compound 93, 3-((13S,15S)-16-hydroxy-3-methoxy-13-methyl-17-oxo-7,8,9,11,12,13,14,15,16,17-decahydro-6H-cyclopenta[a]phenanthren-15-yl)-N-(5-methylthiazol-2-yl)propanamide], the inhibition at 1 µM in assay [1] (setting [3]) is 3%; in assay [2] (setting [4]), 54%.

`Cc1cnc(NC(=O)CC[C@@H]2CC(=O)[C@@]3(C)CCC4c5cc6[nH]c(=O)oc6cc5CCC4C23)s1` (stereo partly drawn) [Compound 50, 3-((3R,12aS)-12a-methyl-1,8-dioxo-2,3,3a,3b,4,5,8,9,10b,11,12,12a-dodecahydro-1H-cyclopenta[7,8]phenanthro[3,2-d]oxazol-3-yl)-N-(5-methylthiazol-2-yl)propanamide]: the figures for the inhibition at 1 µM in assay [1] (setting [3]) and in assay [2] (setting [4]) were 40% and 91%, respectively.

As to `COc1ccc2c(c1)CCC1C2CC[C@]2(C)C(=O)/C(=C/O)[C@@H](CCC(=O)Nc3ncc(C)s3)C12` (stereo partly drawn) [Compound 97, 3-{(13S,15S)-16-[1-Hydroxy-methylidene]-3-methoxy-13-methyl-17-oxo-7,8,9,11,12,13,14,15,16,17-decahydro-6H-cyclopenta[a]phenanthren-15-yl}-N-(5-methylthiazol-2-yl)propanamide], the inhibition at 1 µM came to 11% in assay [1] (setting [3]) and 92% in assay [2] (setting [4]).

With `Cc1cnc(NC(=O)CC[C@@H]2CC(=O)[C@@]3(C)CCC4c5ccc(O)c(N)c5CCC4C23)s1` (stereo partly drawn) [Compound 38, 3-((13S,15R)-4-amino-3-hydroxy-13-methyl-17-oxo-7,8,9,11,12,13,14,15,16,17-decahydro-6H-cyclopenta[a]phenanthren-15-yl)-N-(5-methylthiazol-2-yl)propanamide], the inhibition at 1 µM is 9% in assay [1] (setting [3]) and 87% in assay [2] (setting [4]).

In the case of `Cc1cnc(NC(=O)CC[C@@H]2CC(=O)[C@@]3(C)CCC4c5cc([N+](=O)[O-])ccc5CCC4C23)s1` (stereo partly drawn) [Compound 84, 3-((13S,15R)-13-methyl-2-nitro-17-oxo-7,8,9,11,12,13,14,15,16,17-decahydro-6H-cyclopenta[a]phenanthren-15-yl)-N-(5-methylthiazol-2-yl)propanamide], the inhibition at 1 µM in assay [1] (setting [3]) was found to be 1%; in assay [2] (setting [4]) it was 93%.

As for `Cc1cnc(NC(=O)CC[C@@H]2CC(=O)[C@@]3(C)CCC4c5cc(F)c(O)c(Br)c5CCC4C23)s1` (stereo partly drawn) [Compound 72, 3-((13S,15R)-4-bromo-2-fluoro-3-hydroxy-13-methyl-17-oxo-7,8,9,11,12,13,14,15,16,17-decahydro-6H-cyclopenta[a]phenanthren-15-yl)-N-(5-methylthiazol-2-yl)propanamide], the inhibition at 1 µM was determined as 10% in assay [1] (setting [3]) and 89% in assay [2] (setting [4]).

For `Cc1cnc(NC(=O)CC[C@@H]2CC(=O)[C@@]3(C)CCC4c5ccc(O)c(C#N)c5CCC4C23)s1` (stereo partly drawn) [Compound 92, 3-((13S,15R)-4-cyano-3-hydroxy-13-methyl-17-oxo-7,8,9,11,12,13,14,15,16,17-decahydro-6H-cyclopenta[a]phenanthren-15-yl)-N-(5-methylthiazol-2-yl)propanamide], the inhibition at 1 µM in assay [1] (setting [3]) was 0%; in assay [2] (setting [4]), 97%.

With `Cc1cnc(NC(=O)CC[C@@H]2CC(=O)[C@@]3(C)CCC4c5ccc(OC(=O)CN)cc5CCC4C23)s1` (stereo partly drawn) [Compound 16, Amino-acetic acid (13S,15R)-13-methyl-15-[2-(5-methylthiazol-2-ylcarbamoyl)-ethyl]-17-oxo-7,8,9,11,12,13,14,15,16,17-decahydro-6H-cyclopenta[a]phenanthren-3-yl ester], the inhibition at 1 µM in assay [1] (setting [3]) turned out to be 0%; in assay [2] (setting [4]), 93%.

As to `Cc1cnc(NC(=O)CC[C@@H]2CC(=O)[C@@]3(C)CCC4c5ccc(OC(=O)N(C)C)cc5CCC4C23)s1` (stereo partly drawn) [Compound 25, Dimethyl-carbamic acid (13S,15R)-13-methyl-15-[2-(5-methylthiazol-2-ylcarbamoyl)-ethyl]-17-oxo-7,8,9,11,12,13,14,15,16,17-decahydro-6H-cyclopenta[a]phenanthren-3-yl ester], the results for the inhibition at 1 µM in assay [1] and in assay [2] were 6% and 52%, respectively.

As to `CC(=O)Oc1ccccc1C(=O)Oc1ccc2c(c1)CCC1C2CC[C@]2(C)C(=O)C[C@@H](CCC(=O)Nc3ncc(C)s3)C12` (stereo partly drawn) [Compound 19, 2-Acetoxy-benzoic acid (13S,15R)-13-methyl-15-[2-(5-methylthiazol-2-ylcarbamoyl)-ethyl]-17-oxo-7,8,9,11,12,13,14,15,16,17-decahydro-6H-cyclopenta[a]phenanthren-3-yl ester], the inhibition at 1 µM came to 0% in assay [1] (setting [3]) and 58% in assay [2] (setting [4]).

Consider `Cc1cnc(NC(=O)CC[C@@H]2CC(=O)[C@@]3(C)CCC4c5c([N+](=O)[O-])ccc(O)c5CCC4C23)s1` (stereo partly drawn) [Compound 94, 3-((13S,15R)-4-hydroxy-13-methyl-1-nitro-17-oxo-7,8,9,11,12,13,14,15,16,17-decahydro-6H-cyclopenta[a]phenanthren-15-yl)-N-(5-methylthiazol-2-yl)propanamide], for which the inhibition at 1 µM in assay [1] (setting [3]) was 4%; in assay [2] (setting [4]) it was 95%.

For `COc1cc2c(cc1I)C1CC[C@]3(C)C(=O)C[C@@H](CCC(=O)Nc4ncc(C)s4)C3C1CC2` (stereo partly drawn) [Compound 52, 3-((13S,15R)-2-iodo-3-methoxy-13-methyl-17-oxo-7,8,9,11,12,13,14,15,16,17-decahydro-6H-cyclopenta[a]phenanthren-15-yl)-N-(5-methylthiazol-2-yl)propanamide], the inhibition at 1 µM in assay [1] (setting [3]) worked out at 1%; in assay [2] (setting [4]), 93%.

`Cc1cnc(NC(=O)CC[C@@H]2CC(=O)[C@@]3(C)CCC4c5ccc(OP(=O)([O-])[O-])cc5CCC4C23)s1.[Na+].[Na+]` (stereo partly drawn) [Compound 8, Phosphoric acid mono-{(13S,15R)-13-methyl-15-[2-(5-methylthiazol-2-ylcarbamoyl)-ethyl]-17-oxo-7,8,9,11,12,13,14,15,16,17-decahydro-6H-cyclopenta[a]phenanthren-3-yl} ester disodium salt]: in assay [1] (setting [3]), the “17β-HSD2 Inhibition % at 1 μM” value is listed as 0%. Also, in assay [2] (setting [4]), the “17β-HDS1 Inhibition % at 1 μM” value was 81%.

On to `Cc1cnc(NC(=O)CC[C@@H]2CC(=O)[C@@]3(C)CCC4c5ccc(OS(=O)(=O)N(C)C)cc5CCC4C23)s1` (stereo partly drawn) [Compound 23, Dimethyl-sulphamic acid (13S,15R)-13-methyl-15-[2-(5-methylthiazol-2-ylcarbamoyl)-ethyl]-17-oxo-7,8,9,11,12,13,14,15,16,17-decahydro-6H-cyclopenta[a]phenanthren-3-yl ester], for which the values for the inhibition at 1 µM in assay [1] (setting [3]) and in assay [2] (setting [4]) were 6% and 74%, respectively.

For the origin of these results see US10377791B2, “Therapeutically active estratrienthiazole derivatives as inhibitors of 17 B-hydroxysteroid dehydrogenase, type 1” (FORENDO PHARMA LTD, priority 2013, dated 2019).
